# Laboratory results from US9073874B2, “Cyclic N,N′-diarylthioureas and N,N′-diarylureas-androgen receptor antagonists, anticancer agent, method for preparation and use thereof” (priority 2010, dated 2015).
# pKi: −log10 of the molar value.
# Experiments:
# A2A (h) = A2A (h) (Homo sapiens, UniProt P29274); assay: competitive radioligand binding assay, A2A (h) (agonist radioligand)
# β1 (h) = β1 (h) (Homo sapiens, UniProt P08588); assay: competitive radioligand binding assay, β1 (h) (agonist radioligand)
# AT2 (h) = AT2 (h) (Homo sapiens, UniProt P50052); assay: competitive radioligand binding assay, AT2 (h) (agonist radioligand)
# D3 (h) = D3 (h) (Homo sapiens, UniProt P35462); assay: competitive radioligand binding assay, D3 (h) (antagonist radioligand)
# D4.4 (h) = D4.4 (h) (Homo sapiens, UniProt P21917); assay: competitive radioligand binding assay, D4.4 (h) (antagonist radioligand)
# ETA (h) = ETA (h) (Homo sapiens, UniProt P25101); assay: competitive radioligand binding assay, ETA (h) (agonist radioligand)
# NMDA = assay: competitive radioligand binding assay, NMDA (antagonist radioligand); settings: 10 μM
# I2 = assay: competitive radioligand binding assay, I2 (antagonist radioligand); settings: 10 μM
# BLT1 (LTB4) (h) = BLT1 (LTB4) (h) (Homo sapiens, UniProt Q15722); assay: competitive radioligand binding assay, BLT1 (LTB4) (h) (agonist radioligand)
# MC4 (h) = MC4 (h) (Homo sapiens, UniProt P32245); assay: competitive radioligand binding assay, MC4 (h) (agonist radioligand)
# N neuronal α4β2 (h) = N neuronal α4β2 (h) (Homo sapiens, UniProt P17787+P43681); assay: competitive radioligand binding assay, N neuronal α4β2 (h) (agonist radioligand)
# PCP = assay: competitive radioligand binding assay, PCP (antagonist radioligand); settings: 10 μM
# IP (PGI2) (h) = IP (PGI2) (h) (Homo sapiens, UniProt P43119); assay: competitive radioligand binding assay, IP (PGI2) (h) (agonist radioligand)
# ER (non-selective) (h) = assay: competitive radioligand binding assay, ER (non-selective) (h) (agonist radioligand); parameters: species or system human; settings: 10 μM
# PR (h) = PR (h) (Homo sapiens, UniProt P06401); assay: competitive radioligand binding assay, PR (h) (agonist radioligand)
# androgen receptors = target: T1, androgen receptors (Homo sapiens, UniProt P10275, T878A); assay: cell-based; type: cell-based
# T1 construct: host or cells: LNCaP
# T1 sequence (P10275 1-920 T878A): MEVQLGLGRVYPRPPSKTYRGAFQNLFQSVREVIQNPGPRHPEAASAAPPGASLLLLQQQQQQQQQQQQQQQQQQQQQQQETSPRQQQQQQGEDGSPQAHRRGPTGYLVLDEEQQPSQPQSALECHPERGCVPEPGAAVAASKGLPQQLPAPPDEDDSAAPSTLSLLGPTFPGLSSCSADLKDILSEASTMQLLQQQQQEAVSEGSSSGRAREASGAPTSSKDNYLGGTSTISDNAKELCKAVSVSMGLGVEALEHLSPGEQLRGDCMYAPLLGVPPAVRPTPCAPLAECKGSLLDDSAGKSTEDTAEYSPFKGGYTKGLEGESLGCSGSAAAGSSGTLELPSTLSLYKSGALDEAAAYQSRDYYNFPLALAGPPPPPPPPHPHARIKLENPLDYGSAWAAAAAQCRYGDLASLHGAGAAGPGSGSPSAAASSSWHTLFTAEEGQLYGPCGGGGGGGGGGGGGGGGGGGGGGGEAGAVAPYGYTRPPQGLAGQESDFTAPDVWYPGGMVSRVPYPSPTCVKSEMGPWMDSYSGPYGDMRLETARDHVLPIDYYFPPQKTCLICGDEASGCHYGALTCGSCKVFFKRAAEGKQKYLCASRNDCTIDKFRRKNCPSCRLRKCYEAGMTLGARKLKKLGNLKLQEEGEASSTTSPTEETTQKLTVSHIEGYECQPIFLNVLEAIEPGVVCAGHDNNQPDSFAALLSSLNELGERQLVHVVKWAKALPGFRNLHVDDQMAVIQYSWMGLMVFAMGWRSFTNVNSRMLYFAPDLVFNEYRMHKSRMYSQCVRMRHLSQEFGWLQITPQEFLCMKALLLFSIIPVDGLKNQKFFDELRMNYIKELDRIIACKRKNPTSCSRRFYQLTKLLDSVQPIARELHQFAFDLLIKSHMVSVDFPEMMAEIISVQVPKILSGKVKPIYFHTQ
# Procedure: The expression of PSA was measured in the culture medium 24 hours thereafter (FIG. 1). […] The LnCAP cells were cultured for a further 5 days and the number of viable cells was then calculated.
# FIG. 1. Inhibition of DHT-stimulated PSA expression in LnCAP cells.
# These cells are sensitive towards 5-a-dihydrotestosterone (DHT) and in the presence thereof produce cancer markers (PSA). […] Before the experiment, the cells were washed and suspended in the same medium, in which, however, a serum treated with charcoal for removal of hormone traces was used instead of calf serum. The cells (10 000 in total) were embedded into the wells of 96-well plates at 100 μl per well and left for 4 days in an incubator at 37° C. […] The cells were incubated for a further 5 days under the same conditions. Then, samples of the supracellular medium were taken and analyzed for PSA. The test was carried out according to the protocol recommended by the manufacturer of the kit for PSA measurement (Alpha Diagnostic International, USA). After wetting the wells containing PSA antibodies attached to their bottoms, 25 μl of test compounds and 100 μl of PSA antibodies pre-conjugated to horseradish peroxidase were added successively to each well. Following a 30-minute incubation at room temperature, the content of each well was removed, the wells were washed several times, and 100 μl of a peroxidase chromogenic substrate was then added to each well. […] Based on data about the dependence of DHT-related reduction of PSA synthesis on the concentration of test compounds, dose-response curves were plotted to determine IC50 values. Said values were used for calculating apparent inhibition constants (Ki) for compounds of general formula I according to Cheng-Prusoff equation. [Cheng, Y., Prusoff, W. H. “Relationship between the inhibition constant (Ki) and the concentration of inhibitor which causes 50 percent inhibition (IC50) of an enzymatic reaction”. Biochem Pharmacol.
# [1] = Maximum tolerated dose, peroral once a day for 5 days in CD1 male mice; type: in vivo
# Procedure: The maximum tolerated doses (MTD) of novel antagonists (R)-1 and their analog Ia were determined in experiments on CD1 male mice at peroral administration once a day for 5 days in doses of 10, 30, and 100 mg/kg. The compound was dissolved in sterile water with addition of Tween 80. Sterile water with Tween 80 was given to control animals (Placebo group). Animals' body weight and mortality rate were estimated. Statistical comparison of groups was carried out according to a non-parametric ANOVA test using Statistica software.
compound,measurement,setting,value
"CNC(=O)c1ccc(N2C(=S)N(c3ccc(C#N)c(C(F)(F)F)c3)C(=O)[C@]23CCOC3)cc1F [(R)-1, 4-[(R)-3-(4-cyano-3-trifluoromethyl-phenyl)-4-oxo-2-thioxo-7-oxa-1,3-diaza-spiro[4.4]non-1-yl]-2-fluoro-N-methyl-benzamide]",inhibition at 10 µM,A2A (h),8.1%
same,inhibition at 10 µM,β1 (h),1.8%
same,inhibition at 10 µM,AT2 (h),-6.2%
same,inhibition at 10 µM,D3 (h),-4.8%
same,inhibition at 10 µM,D4.4 (h),-4.7%
same,inhibition at 10 µM,ETA (h),-2.5%
same,% Inhibition,NMDA,2.0%
same,% Inhibition,I2,10.1%
same,inhibition at 10 µM,BLT1 (LTB4) (h),15.9%
same,inhibition at 10 µM,MC4 (h),-3.1%
same,inhibition at 10 µM,N neuronal α4β2 (h),0.2%
same,% Inhibition,PCP,0.5%
same,inhibition at 10 µM,IP (PGI2) (h),-7.3%
same,% Inhibition,ER (non-selective) (h),−7.6%
same,inhibition at 10 µM,PR (h),66.6%
same,AR antagonistic activity (in words),androgen receptors,even greater AR antagonistic activity
same,fold more efficient than III in inhibiting DHT-induced PSA expression,androgen receptors,around 1.9 fold
same,fold more efficient than Ia in inhibiting DHT-induced PSA expression,androgen receptors,around 1.5 fold
same,fold more potent than (S)-stereoisomer (S)-1,androgen receptors,more than 10 fold
same,pKi,"androgen receptors; read-out: Ki, inhibition of DHT-induced PSA expression",7.70
same,MTD at 5 days,"[1]; CD1, mouse, in vivo, oral, male CD-1 mice, peroral once a day for 5 days",> 100 mg/kg
same,body weight versus control animals (Placebo group),"[1]; CD1 male mice, peroral, 100 mg/kg",no statistical significance was observed
same,mortality,"[1]; CD1 male mice, peroral, doses below 100 mg/kg (10 and 30 mg/kg)",did not lead to death
same,toxicity compared with the (Ia) antagonist,"[1]; male CD-1 mice, from MTD",more than three times less toxic
